Experimental data as given in article PMC2692652 (Biochemistry, 2009).

What was measured:
W327F M. tb PGDH [1] = target: T1, W327F M. tb PGDH (Mycobacterium tuberculosis, UniProt P9WNX3, W326F); assay type: biochemical; settings: pH 7.5
W29F M. tb PGDH [2] = target: T2, W29F M. tb PGDH (Mycobacterium tuberculosis, UniProt P9WNX3, W28F); assay type: binding; settings: pH 7.5
W327F M. tb PGDH [3] = target: T1, W327F M. tb PGDH; assay type: binding; settings: pH 7.5
W29F M. tb PGDH [4] = target: T2, W29F M. tb PGDH; assay type: biochemical; settings: pH 7.5
[5] = target: T3, R451A-R501A-K439A M. tb PGDH (Mycobacterium tuberculosis, UniProt P9WNX3, K438A/R450A/R500A); assay type: biochemical; settings: pH 7.5
[6] = target: T3, R451A-R501A-K439A M. tb PGDH; assay type: binding; settings: pH 7.5
[7] = tested on: native and mutant M. tb PGDH; assay: NADH dependence of steady state activity, summary over enzymes; assay type: biochemical, Mycobacterium tuberculosis
R446A M. tb PGDH [8] = target: T4, R446A M. tb PGDH (Mycobacterium tuberculosis, UniProt P9WNX3, R445A); settings: read-out: Ki, HPAP (substrate inhibition); cited from earlier work
R501A M. tb PGDH [9] = target: T5, R501A M. tb PGDH (Mycobacterium tuberculosis, UniProt P9WNX3, R500A); settings: read-out: Ki, HPAP (substrate inhibition); cited from earlier work
K439A M. tb PGDH [10] = target: T6, K439A M. tb PGDH (Mycobacterium tuberculosis, UniProt P9WNX3, K438A); settings: read-out: Ki, HPAP (substrate inhibition); cited from earlier work
H447A M. tb PGDH [11] = target: T7, H447A M. tb PGDH (Mycobacterium tuberculosis, UniProt P9WNX3, H446A); settings: read-out: Ki, HPAP (substrate inhibition); cited from earlier work
H447A M. tb PGDH [12] = target: T7, H447A M. tb PGDH; assay type: biochemical; settings: pH 7.5
R501A M. tb PGDH [13] = target: T5, R501A M. tb PGDH; assay type: biochemical; settings: pH 7.5
R451A M. tb PGDH = R451A M. tb PGDH (Mycobacterium tuberculosis, UniProt P9WNX3, R450A); assay type: biochemical; settings: pH 7.5
K439A M. tb PGDH [14] = target: T6, K439A M. tb PGDH; assay type: biochemical; settings: pH 7.5
R446A M. tb PGDH [15] = target: T4, R446A M. tb PGDH; assay type: biochemical; settings: pH 7.5
[16] = target: R446A-R501A-K439A M. tb PGDH (Mycobacterium tuberculosis, UniProt P9WNX3, K438A/R445A/R500A); assay type: biochemical; settings: pH 7.5
[17] = target: T3, R451A-R501A-K439A M. tb PGDH; assay type: biochemical

NADH
K0.5, Activity vs NADH (W327F M. tb PGDH [1]): 89 ± 4 µM | n (Hill coefficient), Activity vs NADH (W327F M. tb PGDH [1]): 2.0 ± 0.1 | K0.5, FRET vs NADH (W29F M. tb PGDH [2]): 1.9 ± 0.1 µM | n (Hill coefficient), FRET vs NADH (W29F M. tb PGDH [2]): 1.2 ± 0.1 | K0.5, FRET vs NADH (W327F M. tb PGDH [3]): 3.0 ± 0.3 µM | n (Hill coefficient), FRET vs NADH (W327F M. tb PGDH [3]): 1.7 ± 0.3 | K0.5, Activity vs NADH (W29F M. tb PGDH [4]): 99 ± 2 µM | n (Hill coefficient), Activity vs NADH (W29F M. tb PGDH [4]): 2.2 ± 0.1 | K0.5, Activity vs NADH [5]: 83 ± 13 µM | n (Hill coefficient), Activity vs NADH [5]: 1.5 ± 0.2 | K0.5, FRET vs NADH [6]: 3.6 ± 0.1 µM | n (Hill coefficient), FRET vs NADH [6]: 2.3 ± 0.2 | K0.5 for NADH for activity [7]: 80 to 100 mM

hydroxypyruvic acid phosphate [HPAP]
Ki (R446A M. tb PGDH [8]): 289 ± 15 µM | Ki (R501A M. tb PGDH [9]): 1020 ± 30 µM | Ki (K439A M. tb PGDH [10]): 54 ± 4 µM | Ki (H447A M. tb PGDH [11]): 870 ± 50 µM

N[C@@H](CO)C(=O)O [L-serine]
n (Hill coefficient), serine inhibition, High Substrate (H447A M. tb PGDH [12]): 1.5 ± 0.1 | n (Hill coefficient), serine inhibition, Peak Substrate (H447A M. tb PGDH [12]): 1.7 ± 0.1 | n (Hill coefficient), serine inhibition, High Substrate (R501A M. tb PGDH [13]): 1.7 ± 0.1 | n (Hill coefficient), serine inhibition, Peak Substrate (R501A M. tb PGDH [13]): 1.5 ± 0.1 | n (Hill coefficient), serine inhibition, High Substrate (R451A M. tb PGDH): 1.7 ± 0.3 | n (Hill coefficient), serine inhibition, Peak Substrate (R451A M. tb PGDH): 1.6 ± 0.1 | n (Hill coefficient), serine inhibition, High Substrate (K439A M. tb PGDH [14]): 1.2 ± 0.1 | n (Hill coefficient), serine inhibition, Peak Substrate (K439A M. tb PGDH [14]): 1.2 ± 0.1 | n (Hill coefficient), serine inhibition, High Substrate (R446A M. tb PGDH [15]): 0.9 ± 0.1 | n (Hill coefficient), serine inhibition, Peak Substrate (R446A M. tb PGDH [15]): 1.3 ± 0.1 | n (Hill coefficient), serine inhibition, Peak Substrate [16]: 1.0 ± 0.1 | Inhibition of catalytic activity by serine [17]: unable to be inhibited
